The experiment has as its system BDC2.5 TCR. Put plainly: I-Ag7 SABR-II library screen, enrichment score. The format is cell-based, mouse. Particulars: I-Ag7 library. An excerpt:
We then asked whether SABR-IIs could be used to present a library of epitopes for CD4^+ T cell antigen discovery. To that end, we constructed a SABR-II library to present epitopes derived from pancreatic islets in I-Ag7 by curating a list of 4,075 published epitopes from the Immune Epitope Database (iedb.org)[50] and a study by Wan et al.[51] (Supplementary Table 1). Of note, this defined library consisted of unmodified epitopes from endogenous proteins, synthetic mimotopes, deamidated epitopes and hybrid insulin peptides (HIPs) that arise from post-translational fusion and are not genetically encoded in vivo[52],[53]. The epitope library was inserted into the I-Ag7 SABR-II backbone through pooled oligonucleotide synthesis, amplification and ligation-free cloning (Extended Data Fig. 3a). The I-Ag7 SABR-II-library was then expressed in NFAT–GFP Jurkat cells. We confirmed that after sequencing, the library accounted for a mean of 708 reads per epitope (Extended Data Fig. 3b). As a proof of concept, we performed co-incubation assays with Jurkat cells expressing the BDC2.5 TCR and sorted the top 1–2% of GFP^+CD69^+ cells at a rate of ~20 min per replicate with three replicates per TCR. We extracted the genomic DNA from sorted cells, amplified the SABR portion of the integrated proviruses and subjected the amplicons to Illumina sequencing (Extended Data Fig. 3c,d). The 1–2% sort gate represents >50-fold enrichment of cognate epitopes with minimal loss of signal (Extended Data Fig. 3e–h). Sequence reads were aligned to the I-Ag7 SABR-II backbone and the corresponding epitopes were scored based on their read counts. For each TCR under investigation, an enrichment score (ES) was determined for all the epitopes in a library. In each experiment, three replicates of a sort with TCR-expressing Jurkat cells were performed and reads were counted post-sequencing. In addition, three replicates of the unsorted library were also sequenced. A linear regression model was built using the unsorted library counts and used to determine the expected abundance of each epitope in the library. The ES was calculated based on the difference between the measured and the expected abundance of each epitope on a per-TCR basis (Fig. 1e). Based on ES values, two quantitative thresholds were used to determine putative cognate epitopes of a given TCR. A high-confidence zone containing clear outliers with a high ES and a low-confidence zone containing weak outliers with a moderately high ES were determined (Fig. 1e). This two-tiered strategy was used to call putative hits from screens. All the top-scoring epitopes for the BDC2.5 TCR were known BDC2.5 ligands containing the WXRM(D/E) motif (Fig. 1f,g, enriched ligands in red), a well-characterized trait of the BDC2.5 TCR[43],[54]–[56]. Across several independent experiments there was limited variation in ES values for the same TCRs and several epitopes fell into high- or low-confidence zones consistently (Extended Data Fig. 4a). Using a different TCR that was isolated from NOD mice, 4-8Ins[57], which recognized the InsB9:23 epitope ([…]), we observed a similar pattern of ES for cognate epitopes (Extended Data Fig. 4b).
For SABR library screens, 3 × 10^6 NFAT–GFP Jurkat cells expressing the SABR library were labeled with CellTrace Violet (BioLegend) according to the manufacturer’s protocol before incubation with 3 × 10^6 Jurkat cells expressing the TCR of interest. These mixtures were incubated in a six-well plate for 16–20 h. Cells were stained with anti-CD69-APC-Cy7 where indicated (BioLegend) and the top 1–2% of GFP^+CD69^+ cells were sorted for genomic DNA extraction, indexing and sequencing (see below). Multiplexed assays were scaled on a per-TCR basis (for example 3 × 10^6 for each of three TCRs against 9 × 10^6 library cells). […]

[1] abbreviates: EXPT1 of 8 biological experiments.

Turning to “AAVRPLWVRMEAA [top putative hit of BDC2.5 TCR in I-Ag7 library]”, the Enrichment score turned out to be 0.000742 under setting [1]; 0.000415 (EXPT2 of 8); 0.000612 (EXPT3 of 8); 0.000371 (EXPT4 of 8); 0.0007 (EXPT5 of 8); 0.000851 (EXPT6 of 8). Also, the Enrichment score reads like this: (EXPT7 of 8) 0.000576; (EXPT8 of 8) 0.000606.

Regarding “AVRPLWVRME [top putative hit of BDC2.5 TCR in I-Ag7 library]”, the Enrichment score is on record as 0.000751 under setting [1]; 0.000649 (EXPT2 of 8); 0.001092 (EXPT3 of 8); 0.001062 (EXPT4 of 8); 0.001109 (EXPT5 of 8); 0.000835 (EXPT6 of 8). Further, the Enrichment score by setting is: (EXPT7 of 8) 0.001173; (EXPT8 of 8) 0.001182.

Consider “AVRPLWVRMEA [top putative hit of BDC2.5 TCR in I-Ag7 library]”, for which the Enrichment score runs as follows: under setting [1], 0.000756; (EXPT2 of 8) 0.000652; (EXPT3 of 8) 0.000955; (EXPT4 of 8) 0.000753; (EXPT5 of 8) 0.000651; (EXPT6 of 8) 0.00121. Besides, the Enrichment score runs as follows: (EXPT7 of 8) 0.001291; (EXPT8 of 8) 0.000826.

With “EKAHIPIWARMDAKK [top putative hit of BDC2.5 TCR in I-Ag7 library]”, the Enrichment score runs as follows: under setting [1], 0.001977; (EXPT2 of 8) 0.00122; (EXPT3 of 8) 0.003326; (EXPT4 of 8) 0.002646; (EXPT5 of 8) 0.002482; (EXPT6 of 8) 0.002979. Moreover, the Enrichment score came to 0.003083 (EXPT7 of 8) and 0.003642 (EXPT8 of 8).

Take “EKAHRPIWARMDAKK [top putative hit of BDC2.5 TCR in I-Ag7 library]”: the Enrichment score under setting [1] stood at 0.001675; the Enrichment score (EXPT2 of 8) was found to be 0.001085; the Enrichment score (EXPT3 of 8) came to 0.002939; the Enrichment score (EXPT4 of 8) came to 0.002157; the Enrichment score (EXPT5 of 8) was found to be 0.001924; the Enrichment score (EXPT6 of 8) was 0.002825. For the same sequence, the Enrichment score is 0.003201 (EXPT7 of 8) and 0.003092 (EXPT8 of 8).

Regarding “RTRPLWVRME [top putative hit of BDC2.5 TCR in I-Ag7 library]”, the Enrichment score worked out at 0.000766 under setting [1]; 0.000703 (EXPT2 of 8); 0.00077 (EXPT3 of 8); 0.000734 (EXPT4 of 8); 0.001024 (EXPT5 of 8); 0.001078 (EXPT6 of 8). Also, the Enrichment score runs as follows: (EXPT7 of 8) 0.001083; (EXPT8 of 8) 0.001303.

Turning to “RVRPLWVRME [top putative hit of BDC2.5 TCR in I-Ag7 library]”, the Enrichment score came to 0.001251 under setting [1]; 0.001157 (EXPT2 of 8); 0.001581 (EXPT3 of 8); 0.000795 (EXPT4 of 8); 0.001224 (EXPT5 of 8); 0.001618 (EXPT6 of 8). Besides, the Enrichment score runs as follows: (EXPT7 of 8) 0.001744; (EXPT8 of 8) 0.001586.

Consider “SRLGAWVRME [top putative hit of BDC2.5 TCR in I-Ag7 library]”, for which the Enrichment score reads like this: under setting [1], 0.000522; (EXPT2 of 8) 0.000175; (EXPT3 of 8) 0.000684; (EXPT4 of 8) 0.000306; (EXPT5 of 8) 0.000243; (EXPT6 of 8) 0.000632. Moreover, the Enrichment score turned out to be 0.000765 (EXPT7 of 8) and 0.000784 (EXPT8 of 8).

Sequence “SRLGLWARME [top putative hit of BDC2.5 TCR in I-Ag7 library]” registered an Enrichment score under setting [1] of 0.00089; an Enrichment score (EXPT2 of 8) of 0.000594; an Enrichment score (EXPT3 of 8) of 0.000983; an Enrichment score (EXPT4 of 8) of 0.000723; an Enrichment score (EXPT5 of 8) of 0.000811; an Enrichment score (EXPT6 of 8) of 0.001313. Further, the Enrichment score is, setting by setting: (EXPT7 of 8) 0.001203; (EXPT8 of 8) 0.001063.

On to “SRLGLWVRMA [top putative hit of BDC2.5 TCR in I-Ag7 library]”, for which the Enrichment score reads like this: under setting [1], 0.000692; (EXPT2 of 8) 0.000345; (EXPT3 of 8) 0.000603; (EXPT4 of 8) 0.000358; (EXPT5 of 8) 0.000683; (EXPT6 of 8) 0.000858. Besides, the Enrichment score is recorded as 0.0006 (EXPT7 of 8) and 0.000465 (EXPT8 of 8).

For the sequence “SRLGLWVRME [top putative hit of BDC2.5 TCR in I-Ag7 library]”, the Enrichment score runs as follows: under setting [1], 0.000716; (EXPT2 of 8) 0.000449; (EXPT3 of 8) 0.000874; (EXPT4 of 8) 0.000616; (EXPT5 of 8) 0.000562; (EXPT6 of 8) 0.000596. Besides, the Enrichment score by setting is: (EXPT7 of 8) 0.000875; (EXPT8 of 8) 0.000992.

(Values after article PMC11093748, “De novo identification of CD4^+ T cell epitopes” (Nature Methods, 2024).)
